Active and inactive are the calls of the source. No cut-off for these calls is given here.
Columns and labels:
Legumain (Sus scrofa) [1] = assay: Inhibitory activity against legumain
Papain (Carica papaya) [2] = biological target: T1, Papain (Carica papaya) (UniProt P00784); assay: Inhibitory activity against papain; No inhibition
T1 sequence (whole entry): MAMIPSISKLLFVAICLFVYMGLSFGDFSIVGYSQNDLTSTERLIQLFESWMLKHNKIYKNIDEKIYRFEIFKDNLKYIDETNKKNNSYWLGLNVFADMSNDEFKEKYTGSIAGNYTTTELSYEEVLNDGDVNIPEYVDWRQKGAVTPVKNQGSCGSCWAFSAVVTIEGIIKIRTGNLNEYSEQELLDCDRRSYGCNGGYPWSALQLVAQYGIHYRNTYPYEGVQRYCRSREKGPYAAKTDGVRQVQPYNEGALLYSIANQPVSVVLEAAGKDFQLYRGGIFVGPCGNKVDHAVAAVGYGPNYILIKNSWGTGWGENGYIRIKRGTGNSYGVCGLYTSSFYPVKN

[3] = biological target: Cathepsin B (Homo sapiens) (UniProt P07858); assay: Inhibitory activity against Cathepsin B; No inhibition
Caspase-1 (Homo sapiens) = biological target: T2, Caspase-1 (Homo sapiens) (UniProt P29466); assay: Inhibitory activity against Caspase-1
T2 sequence (whole entry): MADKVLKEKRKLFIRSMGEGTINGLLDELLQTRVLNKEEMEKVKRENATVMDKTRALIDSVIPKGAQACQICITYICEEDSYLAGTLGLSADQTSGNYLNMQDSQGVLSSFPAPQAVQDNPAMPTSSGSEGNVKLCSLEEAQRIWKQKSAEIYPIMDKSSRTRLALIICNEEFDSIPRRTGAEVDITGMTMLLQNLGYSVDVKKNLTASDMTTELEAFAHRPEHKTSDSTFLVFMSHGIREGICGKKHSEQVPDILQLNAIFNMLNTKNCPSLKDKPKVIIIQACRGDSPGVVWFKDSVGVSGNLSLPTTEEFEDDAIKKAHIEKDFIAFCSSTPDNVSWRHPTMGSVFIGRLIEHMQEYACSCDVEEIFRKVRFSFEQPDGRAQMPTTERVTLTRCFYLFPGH

Legumain (Sus scrofa) [4] = assay: Inhibitory activity against legumain; No inhibition
Caspase-8 (Homo sapiens) = Caspase-8 (Homo sapiens) (UniProt Q14790); assay: Inhibitory activity against Caspase-8
Caspase-3 (Homo sapiens) = biological target: T3, Caspase-3 (Homo sapiens) (UniProt P42574); assay: Inhibitory activity against Caspase-3
T3 sequence (whole entry): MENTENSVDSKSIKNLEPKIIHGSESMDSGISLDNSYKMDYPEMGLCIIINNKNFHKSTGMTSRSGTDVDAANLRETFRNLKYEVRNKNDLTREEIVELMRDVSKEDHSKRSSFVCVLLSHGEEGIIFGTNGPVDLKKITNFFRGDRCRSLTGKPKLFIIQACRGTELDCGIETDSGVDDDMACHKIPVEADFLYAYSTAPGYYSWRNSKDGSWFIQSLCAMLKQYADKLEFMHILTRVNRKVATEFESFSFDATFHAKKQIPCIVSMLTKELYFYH

Caspase-6 (Homo sapiens) = biological target: T4, Caspase-6 (Homo sapiens) (UniProt P55212); assay: Inhibitory activity against Caspase-6
T4 sequence (whole entry): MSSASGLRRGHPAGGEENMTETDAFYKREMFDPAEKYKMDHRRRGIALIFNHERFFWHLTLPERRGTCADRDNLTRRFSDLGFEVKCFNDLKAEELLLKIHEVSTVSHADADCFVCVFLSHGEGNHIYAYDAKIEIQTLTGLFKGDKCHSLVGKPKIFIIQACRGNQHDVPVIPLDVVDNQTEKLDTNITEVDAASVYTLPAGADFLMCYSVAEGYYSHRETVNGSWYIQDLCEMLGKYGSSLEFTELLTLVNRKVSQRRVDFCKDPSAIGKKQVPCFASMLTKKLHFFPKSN

[5] = biological target: Cathepsin B (Homo sapiens) (UniProt P07858); assay: Inhibitory activity against Cathepsin B
Papain (Carica papaya) [6] = biological target: T1, Papain (Carica papaya); assay: Inhibitory activity against papain.

Sequence of Caspase-8 (Homo sapiens) (Q14790 217-374 limits assumed): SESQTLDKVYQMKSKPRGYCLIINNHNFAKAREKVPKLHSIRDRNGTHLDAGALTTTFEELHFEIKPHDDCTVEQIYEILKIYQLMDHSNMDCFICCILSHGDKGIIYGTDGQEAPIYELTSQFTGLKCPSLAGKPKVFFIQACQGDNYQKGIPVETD
Sequence of Caspase-8 (Homo sapiens) (Q14790 385-479 limits assumed): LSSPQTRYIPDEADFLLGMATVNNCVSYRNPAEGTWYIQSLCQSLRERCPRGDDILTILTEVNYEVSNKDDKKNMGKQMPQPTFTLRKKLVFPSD

k obs / 1 (Legumain (Sus scrofa) [1]) [M⁻¹ s⁻¹] | NI (Papain (Carica papaya) [2]) | NI [3] | k obs / 1 (Caspase-1 (Homo sapiens)) [M⁻¹ s⁻¹] | NI (Legumain (Sus scrofa) [4]) | k obs / 1 (Caspase-8 (Homo sapiens)) [M⁻¹ s⁻¹] | k obs / 1 (Caspase-3 (Homo sapiens)) [M⁻¹ s⁻¹] | k obs / 1 (Caspase-6 (Homo sapiens)) [M⁻¹ s⁻¹] | k obs / 1 (Papain (Carica papaya) [2]) [M⁻¹ s⁻¹] | k obs / 1 [5] [M⁻¹ s⁻¹] | k obs / 1 (Papain (Carica papaya) [6]) [M⁻¹ s⁻¹] | Compound
142 | inactive | inactive |  |  |  |  |  |  |  |  | CCOC(=O)C1OC1C(=O)N(CC(N)=O)NC(=O)[C@@H](C)NC(=O)[C@@H](C)NC(=O)Cc1ccccc1 (stereo in doubt; 17)
 | inactive | inactive | 6130 | inactive | < 10 | < 10 | < 10 |  |  |  | CC(C)[C@H](NC(=O)CCc1ccccc1)C(=O)N[C@@H](C)C(=O)NN(CC(=O)O)C(=O)C1OC1CCc1ccccc1 (stereo not given in full)
 |  | inactive |  | inactive |  |  |  | 35 |  |  | CCOC(=O)C1OC1C(=O)N(CC(C)C)NC(=O)[C@@H](CC(C)C)NC(=O)[C@@H](CC(C)C)NC(=O)Cc1ccccc1 (stereo in doubt; 20)
21 |  |  | 36200 |  | 63 | 58 | 52 |  | < 10 | < 10 | CC(C)[C@H](NC(=O)CCc1ccccc1)C(=O)N[C@@H](C)C(=O)NN(CC(=O)O)C(=O)C1OC1C(=O)OCc1ccccc1 (stereo not given in full)
